Laboratory results as given in ChEMBL document CHEMBL3804790, “Fragment-Based Approaches to the Development of Mycobacterium tuberculosis CYP121 Inhibitors” (J Med Chem, 2016).

Legend:
Mycocyclosin synthase [1] = biological target: T1, Mycocyclosin synthase (Mycobacterium tuberculosis, UniProt P9WPP7); design: species or system C41(DE3)
T1 sequence (P9WPP7 whole entry): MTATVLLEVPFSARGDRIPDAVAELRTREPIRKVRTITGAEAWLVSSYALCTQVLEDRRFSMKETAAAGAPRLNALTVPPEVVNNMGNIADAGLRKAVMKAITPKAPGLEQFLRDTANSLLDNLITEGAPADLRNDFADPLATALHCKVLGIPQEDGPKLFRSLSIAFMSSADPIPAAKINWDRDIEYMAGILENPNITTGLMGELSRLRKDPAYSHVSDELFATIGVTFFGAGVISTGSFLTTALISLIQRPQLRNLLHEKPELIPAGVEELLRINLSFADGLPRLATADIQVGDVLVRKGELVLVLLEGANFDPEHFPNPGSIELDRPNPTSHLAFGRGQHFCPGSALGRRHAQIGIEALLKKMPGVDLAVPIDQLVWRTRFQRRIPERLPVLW

[2] = tested on: Mycobacterium tuberculosis; assay: Antimycobacterial activity against Mycobacterium tuberculosis H37Rv assessed as bacterial growth inhibition after 2 weeks; assay type: functional; details: 336 h
Mycocyclosin synthase [3] = biological target: T1, Mycocyclosin synthase; design: species or system C41(DE3); remark: listed apart in the source
Cytochrome P450 2C9 = Cytochrome P450 2C9 (Homo sapiens, UniProt P11712); assay: Inhibition of CYP2C9 in human liver microsomes using tolbutamide as substrate by LC-MS/MS analysis; assay type: ADME
Chain of Cytochrome P450 2C9 (P11712 whole entry): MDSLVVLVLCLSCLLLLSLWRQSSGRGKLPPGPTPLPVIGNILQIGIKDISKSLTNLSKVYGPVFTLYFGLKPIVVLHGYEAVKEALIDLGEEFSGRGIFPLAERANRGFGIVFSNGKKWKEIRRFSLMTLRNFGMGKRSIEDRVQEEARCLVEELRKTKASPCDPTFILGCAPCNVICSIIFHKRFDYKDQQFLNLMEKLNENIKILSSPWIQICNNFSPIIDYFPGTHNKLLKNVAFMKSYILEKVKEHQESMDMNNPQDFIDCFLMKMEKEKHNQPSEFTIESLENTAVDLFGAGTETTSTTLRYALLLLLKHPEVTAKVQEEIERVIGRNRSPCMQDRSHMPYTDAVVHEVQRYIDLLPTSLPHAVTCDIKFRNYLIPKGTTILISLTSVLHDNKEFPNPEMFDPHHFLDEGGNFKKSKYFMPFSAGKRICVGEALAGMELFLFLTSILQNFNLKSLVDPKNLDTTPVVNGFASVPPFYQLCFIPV

Cytochrome P450 3A4 = Cytochrome P450 3A4 (Homo sapiens, UniProt P08684)
Chain of Cytochrome P450 3A4 (P08684 whole entry): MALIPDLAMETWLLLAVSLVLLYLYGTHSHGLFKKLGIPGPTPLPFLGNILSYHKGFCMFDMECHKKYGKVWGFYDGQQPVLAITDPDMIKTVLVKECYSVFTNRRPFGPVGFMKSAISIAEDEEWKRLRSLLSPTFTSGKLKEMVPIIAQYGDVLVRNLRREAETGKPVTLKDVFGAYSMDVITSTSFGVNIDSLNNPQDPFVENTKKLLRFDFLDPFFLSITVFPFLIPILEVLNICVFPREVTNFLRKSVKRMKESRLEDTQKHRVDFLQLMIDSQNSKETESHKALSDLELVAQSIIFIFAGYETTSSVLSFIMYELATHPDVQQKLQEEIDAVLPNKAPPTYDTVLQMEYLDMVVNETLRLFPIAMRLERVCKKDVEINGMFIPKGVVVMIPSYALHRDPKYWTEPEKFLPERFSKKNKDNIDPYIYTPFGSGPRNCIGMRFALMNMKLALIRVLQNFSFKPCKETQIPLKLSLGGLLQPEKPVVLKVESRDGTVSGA
Description: Inhibition of CYP3A4 in human liver microsomes using midazolam as substrate by LC-MS/MS analysis

[4] = Inhibition of CYP1A1/CYP1A2 in human liver microsomes using ethoxyresorufin as substrate by fluorescence analysis; assay type: ADME
Cytochrome P450 2C19 = Cytochrome P450 2C19 (Homo sapiens, UniProt P33261); assay: Inhibition of CYP2C19 in human liver microsomes using mephenytoin as substrate by LC-MS/MS analysis; assay type: ADME
Chain of Cytochrome P450 2C19 (P33261 whole entry): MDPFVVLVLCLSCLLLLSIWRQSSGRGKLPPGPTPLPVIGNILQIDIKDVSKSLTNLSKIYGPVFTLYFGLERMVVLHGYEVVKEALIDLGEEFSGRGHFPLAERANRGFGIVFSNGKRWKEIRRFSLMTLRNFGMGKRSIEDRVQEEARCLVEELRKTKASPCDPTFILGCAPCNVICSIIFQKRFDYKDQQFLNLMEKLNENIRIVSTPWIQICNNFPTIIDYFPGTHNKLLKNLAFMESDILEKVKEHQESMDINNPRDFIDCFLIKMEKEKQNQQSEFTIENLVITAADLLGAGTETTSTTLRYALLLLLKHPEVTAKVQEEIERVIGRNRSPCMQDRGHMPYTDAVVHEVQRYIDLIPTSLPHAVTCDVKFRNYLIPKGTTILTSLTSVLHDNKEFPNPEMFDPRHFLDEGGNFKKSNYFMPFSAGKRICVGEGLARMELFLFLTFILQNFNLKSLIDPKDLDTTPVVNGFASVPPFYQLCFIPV

Cytochrome P450 2D6 = Cytochrome P450 2D6 (Homo sapiens, UniProt P10635); assay: Inhibition of CYP2D6 in human liver microsomes using dextromethorphan as substrate by LC-MS/MS analysis; assay type: ADME
Chain of Cytochrome P450 2D6 (P10635 whole entry): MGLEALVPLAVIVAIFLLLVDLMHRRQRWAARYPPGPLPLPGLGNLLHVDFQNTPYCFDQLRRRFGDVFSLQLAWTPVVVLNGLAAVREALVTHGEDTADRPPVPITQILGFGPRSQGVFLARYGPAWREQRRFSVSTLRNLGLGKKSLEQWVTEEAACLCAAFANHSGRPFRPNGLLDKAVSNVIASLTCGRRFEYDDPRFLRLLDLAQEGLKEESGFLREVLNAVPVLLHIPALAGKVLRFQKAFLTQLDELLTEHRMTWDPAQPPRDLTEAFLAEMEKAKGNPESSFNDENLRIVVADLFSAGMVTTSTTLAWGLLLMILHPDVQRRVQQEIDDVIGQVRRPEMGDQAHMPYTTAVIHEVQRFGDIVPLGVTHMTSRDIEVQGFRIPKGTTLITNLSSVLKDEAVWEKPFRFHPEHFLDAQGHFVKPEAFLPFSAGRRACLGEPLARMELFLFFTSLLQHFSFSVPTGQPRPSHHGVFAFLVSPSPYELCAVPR

[5] = biological target: T2, Methyl-branched lipid omega-hydroxylase (Mycobacterium tuberculosis (strain ATCC 25618 / H37Rv), UniProt P9WPP3); design: species or system C41(DE3)
T2 sequence (P9WPP3 whole entry): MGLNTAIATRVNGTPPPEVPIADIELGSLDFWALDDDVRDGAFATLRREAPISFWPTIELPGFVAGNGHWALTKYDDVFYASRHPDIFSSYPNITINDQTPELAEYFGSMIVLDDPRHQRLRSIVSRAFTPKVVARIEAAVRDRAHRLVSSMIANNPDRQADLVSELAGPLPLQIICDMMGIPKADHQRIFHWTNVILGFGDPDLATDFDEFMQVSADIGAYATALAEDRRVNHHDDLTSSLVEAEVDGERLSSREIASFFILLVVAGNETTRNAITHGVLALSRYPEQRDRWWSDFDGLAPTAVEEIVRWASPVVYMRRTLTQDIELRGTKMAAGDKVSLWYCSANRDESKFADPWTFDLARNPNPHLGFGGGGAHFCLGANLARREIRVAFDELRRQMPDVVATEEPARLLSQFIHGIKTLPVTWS

[6] = biological target: T3, Steroid C26-monooxygenase (Mycobacterium tuberculosis, UniProt P9WPP1); design: species or system C41(DE3)
T3 sequence (P9WPP1 whole entry): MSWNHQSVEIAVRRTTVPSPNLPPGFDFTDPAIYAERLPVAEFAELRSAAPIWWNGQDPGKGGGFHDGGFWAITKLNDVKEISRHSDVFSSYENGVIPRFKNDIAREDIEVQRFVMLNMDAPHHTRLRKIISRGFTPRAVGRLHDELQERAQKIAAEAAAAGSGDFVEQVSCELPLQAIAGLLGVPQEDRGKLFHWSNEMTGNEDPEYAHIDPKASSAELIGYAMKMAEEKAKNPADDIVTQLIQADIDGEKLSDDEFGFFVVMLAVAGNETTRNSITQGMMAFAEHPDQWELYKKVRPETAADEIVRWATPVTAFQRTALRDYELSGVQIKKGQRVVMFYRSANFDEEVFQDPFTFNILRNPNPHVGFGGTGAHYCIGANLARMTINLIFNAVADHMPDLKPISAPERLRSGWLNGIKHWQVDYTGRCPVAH

[7] = tested on: CYP1A (relative to Mycobacterium tuberculosis CYP121); assay: in vitro; details: human, c41(de3)
Description: Selectivity ratio of IC50 for human CYP1A to Kd for Mycobacterium tuberculosis His6-tagged CYP121 expressed in Escherichia coli C41 (DE3) cells

Work on `Cc1ccc2cc(N)ccc2n1` yielded a Kd (Mycocyclosin synthase [1]; read-out: Kd) of 400 µM.
`Oc1ccc(Nc2[nH]nc(-c3ccc(O)cc3)c2-c2ccc(O)cc2)cc1` gave a Kd (Mycocyclosin synthase [1]; read-out: Kd) of 15 µM.
Molecule `Nc1cccc(Cn2cncn2)c1` has a Kd (Mycocyclosin synthase [1]; read-out: Kd) of 1600 µM.
Molecule `COc1ccc(-c2cn[nH]c2N)cc1-c1cccc(N)c1` has a Kd (Mycocyclosin synthase [1]; read-out: Kd) of 68 µM.
`NC(=O)c1cc(Cl)ccc1N` gave a Kd (Mycocyclosin synthase [1]; read-out: Kd) of 3400 µM.
Molecule `Nc1cccc(-c2cc(-c3cn[nH]c3N)ccc2OCc2ccccc2)c1` has a Kd (Mycocyclosin synthase [1]; read-out: Kd) of 28 µM.
With `COc1ccc(-c2n[nH]c(N)c2-c2cccc(-c3cccc(N)c3)c2)cc1` the MIC90 [2] was at least 50 µM, the Kd (Mycocyclosin synthase [1]; c41(de3)) was “ND(Insoluble)” and the Kd (Mycocyclosin synthase [3]) was 0.034 µM.
In the case of `Nc1cc(-c2ccc(O)cc2)n[nH]1`, the Kd (Mycocyclosin synthase [1]; read-out: Kd) is reported as 1300 µM.
In the case of `Nc1cccc(-c2cc(-c3c(-c4ccc(O)cc4)n[nH]c3N)ccc2O)c1`, the MIC90 [2] is reported as at least 50 µM.
With `O=C(Nc1[nH]nc(-c2ccc(O)cc2)c1-c1ccc(O)cc1)c1ccncc1` the Kd (Mycocyclosin synthase [1]; read-out: Kd) was 600 µM.
`Oc1ccc(CNc2[nH]nc(-c3ccc(O)cc3)c2-c2ccc(O)cc2)cc1` gave an MIC90 [2] of at least 50 µM, an IC50 (Cytochrome P450 2C9) of over 25 µM and an IC50 (Cytochrome P450 3A4) of over 25 µM. The IC50 [4] was over 25 µM, the IC50 (Cytochrome P450 2C19) was over 25 µM and the IC50 (Cytochrome P450 2D6) was over 25 µM. It also gave a Kd (Mycocyclosin synthase [1]; read-out: Kd) of 6.3 µM.
With `Nc1[nH]nc(-c2cccc(O)c2)c1-c1ccc(O)cc1` the Kd (Mycocyclosin synthase [1]; read-out: Kd) was 60 µM.
`Oc1ccc(-c2n[nH]c(NCc3c[nH]cn3)c2-c2ccc(O)cc2)cc1` showed a Kd (Mycocyclosin synthase [1]; read-out: Kd) of 275 µM.
`Nc1[nH]nc(-c2ccc(O)cc2)c1-c1ccc(O)cc1` gave an MIC90 [2] of at least 50 µM and a Kd (Mycocyclosin synthase [1]; read-out: Kd) of 40 µM.
Molecule `Oc1ccc(-c2n[nH]c(NCc3ccco3)c2-c2ccc(O)cc2)cc1` has a Kd (Mycocyclosin synthase [1]; read-out: Kd) of 24 µM.
Work on `Oc1ccc(-c2n[nH]c(NCc3ccc(O)c(Br)c3)c2-c2ccc(O)cc2)cc1` yielded a Kd (Mycocyclosin synthase [1]; read-out: Kd) of 19 µM.
`Oc1ccc(-c2n[nH]c(NCc3ccsc3)c2-c2ccc(O)cc2)cc1` showed a Kd (Mycocyclosin synthase [1]; read-out: Kd) of 18 µM.
`O=C(Nc1[nH]nc(-c2ccc(O)cc2)c1-c1ccc(O)cc1)c1ccc(O)cc1` gave a Kd (Mycocyclosin synthase [1]; read-out: Kd) of 78 µM.
Work on `Nc1[nH]nc(-c2cccc(F)c2)c1-c1ccc(O)cc1` yielded a Kd (Mycocyclosin synthase [1]; read-out: Kd) of 252 µM.
For `Oc1ccc(Nc2cc(-c3ccc(O)cc3)[nH]n2)cc1`, the Kd (Mycocyclosin synthase [1]; read-out: Kd) was 10.6 µM.
Molecule `Nc1[nH]nc(-c2ccc(O)cc2O)c1-c1ccc(O)cc1` has a Kd (Mycocyclosin synthase [1]; read-out: Kd) of 181 µM.
In the case of `Oc1ccc(-n2cncn2)cc1`, the Kd (Mycocyclosin synthase [1]; read-out: Kd) is reported as 1700 µM.
With `Oc1ccc(-c2n[nH]c(NCc3ccc4[nH]ccc4c3)c2-c2ccc(O)cc2)cc1` the Kd (Mycocyclosin synthase [1]; read-out: Kd) was 60 µM.
For `Oc1ccc(-c2n[nH]c(NCc3ccncc3)c2-c2ccc(O)cc2)cc1`, the Kd (Mycocyclosin synthase [1]; read-out: Kd) was 240 µM.
For `Nc1[nH]ncc1-c1ccc(O)cc1`, the Kd (Mycocyclosin synthase [1]; read-out: Kd) was 1870 µM.
`Nc1cccc(-c2cccc(-c3c(-c4ccc(O)cc4)n[nH]c3N)c2)c1` showed a Kd [5] of 0.86 µM, a Kd [6] of 18.4 µM and an MIC90 [2] of at least 50 µM. The IC50 (Cytochrome P450 2C9) was over 25 µM, the IC50 (Cytochrome P450 3A4) was 11.3 µM and the IC50 [4] was 21.4 µM. It also gave an IC50 (Cytochrome P450 2C19) of over 25 µM, an IC50 (Cytochrome P450 2D6) of over 25 µM and a Kd (Mycocyclosin synthase [1]; read-out: Kd) of 0.74 µM. The Kd (Mycocyclosin synthase [3]) was 0.015 µM and the selectivity ratio [7] was 1430.
`Nc1cccc(-c2cccc(-c3cn[nH]c3N)c2)c1` showed an MIC90 [2] of at least 50 µM, an IC50 (Cytochrome P450 2C9) of over 25 µM and an IC50 (Cytochrome P450 3A4) of over 25 µM. It also gave an IC50 [4] of 1.22 µM, an IC50 (Cytochrome P450 2C19) of over 25 µM and an IC50 (Cytochrome P450 2D6) of over 25 µM. It also gave a Kd (Mycocyclosin synthase [1]; read-out: Kd) of 140 µM, a Kd (Mycocyclosin synthase [3]) of 14 µM and a selectivity ratio [7] of 0.09.
In the case of `Nc1ccc(-c2cccc(-c3cn[nH]c3N)c2)cc1`, the Kd (Mycocyclosin synthase [3]) is reported as 230 µM.
In the case of `Oc1ccc(-c2n[nH]c(NCc3cccc4[nH]ncc34)c2-c2ccc(O)cc2)cc1`, the Kd (Mycocyclosin synthase [1]; read-out: Kd) is reported as 45 µM.
With `O=C(Nc1[nH]nc(-c2ccc(O)cc2)c1-c1ccc(O)cc1)c1ccccc1` the Kd (Mycocyclosin synthase [1]; read-out: Kd) was 160 µM.
